From the supplement of paper PMC10307832 come the findings set out here.

What all share (experiment): relative viability (nuclei count vs DMSO), 5 days (fraction); higher = more cells survive
Compound in the experiment “VX-11e + Tozasertib”: CC1=CN=C(N=C1C2=CNC(=C2)C(=O)N[C@H](CO)C3=CC(=CC=C3)Cl)NC4=C(C=C(C=C4)F)Cl [VX-11e] + Cc1cc(Nc2cc(N3CCN(C)CC3)nc(Sc3ccc(NC(=O)C4CC4)cc3)n2)n[nH]1 [Tozasertib] (partner 0.1 µM)
The procedure, abridged:
(§1)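 The day after seeding in 1536-well plates, lung cancer cell lines were treated by pin tool with a single drug, or with a fixed anchor-drug dose together with five library-drug doses (not always all listed) in √10 steps. After 5 days, a combined fix-and-stain solution (final 0.05% Triton X-100, 1% formaldehyde, 1 ug/ml Hoechst) was added. Nuclei counted on 4× images gave relative viability as treated counts over vehicle counts, reported as the median of duplicate plates.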

Compound in the experiment “VX-11e + OSI-027”: CC1=CN=C(N=C1C2=CNC(=C2)C(=O)N[C@H](CO)C3=CC(=CC=C3)Cl)NC4=C(C=C(C=C4)F)Cl [VX-11e] + COc1cccc2cc(-c3nc([C@H]4CC[C@H](C(=O)O)CC4)n4ncnc(N)c34)[nH]c12 [OSI-027] (partner 0.5 µM)
Put shortly: as §1

Compound in the experiment “VX-11e + Linsitinib”: CC1=CN=C(N=C1C2=CNC(=C2)C(=O)N[C@H](CO)C3=CC(=CC=C3)Cl)NC4=C(C=C(C=C4)F)Cl [VX-11e] + C[C@]1(O)C[C@@H](c2nc(-c3ccc4ccc(-c5ccccc5)nc4c3)c3c(N)nccn32)C1 [Linsitinib] (partner 1 µM)
The procedure, abridged:
as §1

Compound in the experiment “VX-11e + Crizotinib”: CC1=CN=C(N=C1C2=CNC(=C2)C(=O)N[C@H](CO)C3=CC(=CC=C3)Cl)NC4=C(C=C(C=C4)F)Cl [VX-11e] + C[C@@H](Oc1cc(-c2cnn(C3CCNCC3)c2)cnc1N)c1c(Cl)ccc(F)c1Cl [Crizotinib] (partner 1 µM)
Put shortly:
as §1

As for 201T, the relative viability was found to be 0.99 with VX-11e + Tozasertib (first compound 0.04 µM); 0.923 with VX-11e + Tozasertib (first compound 0.1265 µM); 0.941 with VX-11e + Tozasertib (first compound 0.4 µM); 0.909 with VX-11e + Tozasertib (first compound 1.265 µM); 0.774 with VX-11e + Tozasertib (first compound 4 µM); 0.728 in the experiment with VX-11e + OSI-027 (first compound 0.04 µM). Also, the relative viability in the experiment with VX-11e + OSI-027 (first compound 0.1265 µM) is 0.678; with VX-11e + OSI-027 (first compound 0.4 µM) it was 0.823; in the experiment with VX-11e + OSI-027 (first compound 1.265 µM), 0.603; with VX-11e + OSI-027 (first compound 4 µM), 0.645; with VX-11e + Linsitinib (first compound 0.04 µM), 1.01; with VX-11e + Linsitinib (first compound 0.1265 µM), 1.02. Moreover, the relative viability in the experiment with VX-11e + Linsitinib (first compound 0.4 µM) is 1; with VX-11e + Linsitinib (first compound 1.265 µM), 0.867; with VX-11e + Linsitinib (first compound 4 µM), 0.966; with VX-11e + Crizotinib (first compound 0.04 µM), 1.02; with VX-11e + Crizotinib (first compound 0.1265 µM), 0.961; with VX-11e + Crizotinib (first compound 0.4 µM) it was 1.02. The relative viability with VX-11e + Crizotinib (first compound 1.265 µM) was determined as 0.97; in the experiment with VX-11e + Crizotinib (first compound 4 µM), 0.948.

As for SK-LU-1, the relative viability in the experiment with VX-11e + Tozasertib (first compound 0.04 µM) turned out to be 0.348; with VX-11e + Tozasertib (first compound 0.1265 µM), 0.298; with VX-11e + Tozasertib (first compound 1.265 µM), 0.338; in the experiment with VX-11e + Tozasertib (first compound 4 µM), 0.194; with VX-11e + OSI-027 (first compound 0.04 µM), 0.285; with VX-11e + OSI-027 (first compound 0.1265 µM), 0.352. Besides, the relative viability with VX-11e + OSI-027 (first compound 1.265 µM) came out at 0.233; with VX-11e + OSI-027 (first compound 4 µM) it was 0.132; with VX-11e + Linsitinib (first compound 0.04 µM), 0.597; with VX-11e + Linsitinib (first compound 0.1265 µM) it was 0.925; with VX-11e + Linsitinib (first compound 0.4 µM) it was 1.31; with VX-11e + Linsitinib (first compound 1.265 µM) it was 0.771. Moreover, the relative viability with VX-11e + Linsitinib (first compound 4 µM) was found to be 0.316; with VX-11e + Crizotinib (first compound 0.04 µM), 0.987; with VX-11e + Crizotinib (first compound 0.1265 µM), 0.761; with VX-11e + Crizotinib (first compound 0.4 µM), 0.789; with VX-11e + Crizotinib (first compound 1.265 µM), 0.735; in the experiment with VX-11e + Crizotinib (first compound 4 µM) it was 0.407.

Turning to NCI-H650, the relative viability with VX-11e + Tozasertib (first compound 0.04 µM) worked out at 0.828; in the experiment with VX-11e + Tozasertib (first compound 0.1265 µM), 0.648; with VX-11e + Tozasertib (first compound 0.4 µM), 0.683; with VX-11e + Tozasertib (first compound 1.265 µM), 0.509; with VX-11e + Tozasertib (first compound 4 µM) it was 0.511; with VX-11e + OSI-027 (first compound 0.04 µM), 0.531. Moreover, the relative viability with VX-11e + OSI-027 (first compound 0.1265 µM) worked out at 0.616; with VX-11e + OSI-027 (first compound 0.4 µM), 0.75; with VX-11e + OSI-027 (first compound 1.265 µM), 0.559; with VX-11e + OSI-027 (first compound 4 µM), 0.518; in the experiment with VX-11e + Linsitinib (first compound 0.1265 µM) it was 0.79; with VX-11e + Linsitinib (first compound 0.4 µM) it was 0.957. The relative viability with VX-11e + Linsitinib (first compound 4 µM) came to 0.88; with VX-11e + Crizotinib (first compound 0.1265 µM) it was 0.538; with VX-11e + Crizotinib (first compound 0.4 µM) it was 0.711; with VX-11e + Crizotinib (first compound 4 µM), 0.478.

As for NCI-H1395, the relative viability amounted to 0.75 with VX-11e + Tozasertib (first compound 0.04 µM); 0.688 with VX-11e + Tozasertib (first compound 0.1265 µM); 0.689 with VX-11e + Tozasertib (first compound 0.4 µM); 0.781 with VX-11e + Tozasertib (first compound 1.265 µM); 0.547 in the experiment with VX-11e + Tozasertib (first compound 4 µM); 0.572 with VX-11e + OSI-027 (first compound 0.04 µM). Besides, the relative viability is 0.539 with VX-11e + OSI-027 (first compound 0.1265 µM); 0.57 in the experiment with VX-11e + OSI-027 (first compound 0.4 µM); 0.621 with VX-11e + OSI-027 (first compound 1.265 µM); 0.447 with VX-11e + OSI-027 (first compound 4 µM); 1.17 with VX-11e + Linsitinib (first compound 0.04 µM); 1.29 with VX-11e + Linsitinib (first compound 0.1265 µM). The values for the relative viability with VX-11e + Linsitinib (first compound 0.4 µM), in the experiment with VX-11e + Linsitinib (first compound 1.265 µM) and with VX-11e + Linsitinib (first compound 4 µM) were 0.846, 0.963 and 0.718, respectively.

Calu-6: the relative viability came out at 1.08 with VX-11e + Linsitinib (first compound 0.04 µM); 0.926 with VX-11e + Linsitinib (first compound 0.1265 µM); 0.935 in the experiment with VX-11e + Linsitinib (first compound 0.4 µM); 0.179 with VX-11e + Linsitinib (first compound 1.265 µM); 0.115 in the experiment with VX-11e + Linsitinib (first compound 4 µM); 0.829 with VX-11e + Crizotinib (first compound 0.04 µM). Besides, the relative viability in the experiment with VX-11e + Crizotinib (first compound 0.1265 µM) is 0.839; with VX-11e + Crizotinib (first compound 0.4 µM), 0.861; with VX-11e + Crizotinib (first compound 1.265 µM), 0.396; with VX-11e + Crizotinib (first compound 4 µM), 0.145.

Take NCI-H1299: the relative viability with VX-11e + Linsitinib (first compound 0.04 µM) was 1.08; in the experiment with VX-11e + Linsitinib (first compound 0.1265 µM) it was 0.944; with VX-11e + Linsitinib (first compound 0.4 µM), 0.942; with VX-11e + Linsitinib (first compound 1.265 µM) it was 0.682; with VX-11e + Linsitinib (first compound 4 µM), 0.36; with VX-11e + Crizotinib (first compound 0.04 µM), 0.994. The relative viability with VX-11e + Crizotinib (first compound 0.1265 µM) was found to be 0.879; in the experiment with VX-11e + Crizotinib (first compound 0.4 µM), 0.956; with VX-11e + Crizotinib (first compound 1.265 µM) it was 0.84; with VX-11e + Crizotinib (first compound 4 µM), 0.47.

NCI-H1793: the relative viability stood at 0.345 in the experiment with VX-11e + Tozasertib (first compound 0.04 µM); 0.293 in the experiment with VX-11e + Tozasertib (first compound 0.1265 µM); 0.228 in the experiment with VX-11e + Tozasertib (first compound 1.265 µM); 0.133 in the experiment with VX-11e + Tozasertib (first compound 4 µM); 0.247 in the experiment with VX-11e + OSI-027 (first compound 0.04 µM); 0.194 in the experiment with VX-11e + OSI-027 (first compound 0.1265 µM). Further, the relative viability with VX-11e + OSI-027 (first compound 1.265 µM) came out at 0.251; in the experiment with VX-11e + OSI-027 (first compound 4 µM), 0.134; with VX-11e + Linsitinib (first compound 0.1265 µM) it was 0.687; with VX-11e + Linsitinib (first compound 1.265 µM), 0.818; in the experiment with VX-11e + Linsitinib (first compound 4 µM), 0.514.

For NCI-H1703, the relative viability in the experiment with VX-11e + Linsitinib (first compound 0.04 µM) came to 0.294; with VX-11e + Linsitinib (first compound 0.1265 µM), 0.655; with VX-11e + Linsitinib (first compound 1.265 µM), 0.748; with VX-11e + Linsitinib (first compound 4 µM), 0.502; in the experiment with VX-11e + Crizotinib (first compound 0.04 µM), 0.985; with VX-11e + Crizotinib (first compound 0.1265 µM) it was 0.727. Also, the figures for the relative viability in the experiment with VX-11e + Crizotinib (first compound 1.265 µM) and with VX-11e + Crizotinib (first compound 4 µM) were 0.589 and 0.582, respectively.

With NCI-H1650, the relative viability with VX-11e + Tozasertib (first compound 0.04 µM) worked out at 0.426; in the experiment with VX-11e + Tozasertib (first compound 0.1265 µM), 0.309; with VX-11e + Tozasertib (first compound 1.265 µM), 0.261; with VX-11e + Tozasertib (first compound 4 µM) it was 0.203; with VX-11e + OSI-027 (first compound 0.04 µM), 0.592; in the experiment with VX-11e + OSI-027 (first compound 0.1265 µM), 0.534. Further, the relative viability in the experiment with VX-11e + OSI-027 (first compound 1.265 µM) is 0.402; in the experiment with VX-11e + OSI-027 (first compound 4 µM), 0.307; with VX-11e + Crizotinib (first compound 0.04 µM), 1.06; with VX-11e + Crizotinib (first compound 0.1265 µM) it was 0.87; in the experiment with VX-11e + Crizotinib (first compound 0.4 µM), 0.751; in the experiment with VX-11e + Crizotinib (first compound 1.265 µM) it was 0.912. Besides, in the experiment with VX-11e + Crizotinib (first compound 4 µM), the relative viability was 0.874.

Take ChaGo-K-1: the relative viability in the experiment with VX-11e + Tozasertib (first compound 0.04 µM) turned out to be 0.219; with VX-11e + Tozasertib (first compound 0.1265 µM), 0.233; in the experiment with VX-11e + Tozasertib (first compound 0.4 µM), 0.234; with VX-11e + Tozasertib (first compound 1.265 µM), 0.188; in the experiment with VX-11e + Tozasertib (first compound 4 µM) it was 0.186; with VX-11e + OSI-027 (first compound 0.04 µM), 0.546. In addition, the relative viability in the experiment with VX-11e + OSI-027 (first compound 0.1265 µM) is 0.533; in the experiment with VX-11e + OSI-027 (first compound 0.4 µM) it was 0.395; with VX-11e + OSI-027 (first compound 1.265 µM), 0.527; with VX-11e + OSI-027 (first compound 4 µM) it was 0.439; in the experiment with VX-11e + Crizotinib (first compound 0.04 µM), 1.19; with VX-11e + Crizotinib (first compound 0.4 µM), 1.23. For the same cell line, the relative viability was found to be 1.01 with VX-11e + Crizotinib (first compound 1.265 µM) and 1.12 with VX-11e + Crizotinib (first compound 4 µM).

In the case of IA-LM, the relative viability with VX-11e + Linsitinib (first compound 0.04 µM) was determined as 0.694; with VX-11e + Linsitinib (first compound 0.1265 µM), 0.516; with VX-11e + Linsitinib (first compound 0.4 µM), 0.469; in the experiment with VX-11e + Linsitinib (first compound 1.265 µM), 0.132; with VX-11e + Linsitinib (first compound 4 µM), 0.142; in the experiment with VX-11e + Crizotinib (first compound 0.04 µM) it was 0.931. Also, the relative viability was 0.961 with VX-11e + Crizotinib (first compound 0.1265 µM), 0.697 in the experiment with VX-11e + Crizotinib (first compound 0.4 µM), 0.271 with VX-11e + Crizotinib (first compound 1.265 µM) and 0.116 in the experiment with VX-11e + Crizotinib (first compound 4 µM).
